# Earlier results as cited in US20140271890A1, “CONTROLLED-RELEASE PHARMACEUTICAL COMPOSITION” (priority 2013, published 2014).
# Conditions: mean dose between 5 and 10 mg in a conventional formulation
compound,measurement,value
Cc1ccc(-c2nc3ccc(C)cn3c2CC(=O)N(C)C)cc1 [Zolpidem],duration of action,up to 6 hours
